{"source": "patent US8962576B2", "about": "“Compositions and method for improving endothelial function and cardiovascular health” (Natreon, Inc., priority 2012, dated 2015)", "format_in_all_cases": "in vivo, human", "key": {"Type 2 Diabetic Subjects [1]": {"tested_on": "Type 2 Diabetic Subjects", "assay": "Biomarkers of oxidative stress (NO, MDA, Glutathione), study (a)", "settings": "Sensoril or Capros 250 mg twice daily, Atorvastatin 10 mg at night; for Glutathione / MDA / NO: n = 10", "protocol": "[…]. (April 2004) 36(2): 76-79. Glutathione levels were determined as described in G. L. Ellman, Arch. Biochem. Biophys. (1959) 82: 70-77 (original determination). Nitric oxide levels were estimated spectrophotometrically as described in Miranda, et al., “A Rapid, Simple Spectrophotometric Method for Simultaneous Detection of Nitrate and Nitrite,” NITRIC OXIDE: Biology and Chemistry (2001) Vol. 5, No. 1, pp. 62-71."}, "Type 2 Diabetic Subjects [2]": {"tested_on": "Type 2 Diabetic Subjects", "assay": "Biomarkers of oxidative stress and hsCRP, study (c)", "settings": "CAPROS 250 mg twice daily, Atorvastatin 10 mg daily, n = 20", "protocol": "Malondialdehyde (MDA) levels were determined as described in Vidyasagar, et al., “Oxidative stress and antioxidant status in acute organophosphorous insecticide poisoning,” Indian J. Pharmacol. (April 2004) 36(2): 76-79. Glutathione levels were determined as described in G. L. Ellman, Arch. Biochem. Biophys. (1959) 82: 70-77 (original determination). Nitric oxide levels were estimated spectrophotometrically as described in Miranda, et al., “A Rapid, Simple Spectrophotometric Method for Simultaneous Detection of Nitrate and Nitrite,” NITRIC OXIDE: Biology and Chemistry (2001) Vol. 5, No. 1, pp. 62-71.\nAfter screening, all the eligible subjects were randomized to receive either one of the four treatments for a duration of 12 weeks, as follows.\nNitric oxide, MDA, Glutathione (GSH) and levels thereof were estimated spectrophotometrically as described above, and HsCRP (high sensitivity C-reactive protein) by ELISA method."}, "Type 2 Diabetic Subjects [3]": {"tested_on": "Type 2 Diabetic Subjects", "assay": "Marker of endothelial function: reflection index (RI), study (c)", "settings": "CAPROS 250 mg twice daily, Atorvastatin 10 mg daily, n = 20", "source_text": "A salbutamol (albuterol) challenge test employing digital volume plethysmography was used to assess endothelial function as reported by Chowienczyk et al., “Photoplethysmographic assessment of pulse wave reflection: blunted response to endothelium dependant beta 2-adrenergic vasodilation in type 2 diabetes mellitus,” J. Am. Coll. Cardiol. (1999 December) 34(7):2007-14; and Naidu, et al., “Comparison of two β2 adrenoceptor agonists by different routes of administration to assess human endothelial function,” Indian J. Pharmacol. (2007) 39:168-9. The patients were examined in supine position after 5 minutes of rest. A digital volume pulse (DVP) was obtained using a photo plethysmograph (Pulse Trace PCA2, PT200, Micro Medical, Gallingham, Kent, UK) transmitting infrared light at 940 nm, placed on the index finger of the right hand. The signal from the plethysmograph was digitized using a 12 bit analogue to digital converter with a sampling frequency of 100 Hz. DVP waveforms were recorded over 20 second period and the height of the late systolic/early diastolic portion of the DVP was expressed as a percentage of the amplitude of the DVP to yield the reflection index (RI), per the procedure described in detail by Millasseau et al., “Determination of age related increases in large artery stiffness by digital pulse contour analysis,” Clinical Science (2002) 103: 371-377. Three DVP recordings were taken, and measurements of reflection index (RI) were calculated and the mean value was determined. Patients were then administered 400 μg of salbutamol by inhalation. After 15 minutes three measurements of RI were obtained again and the difference in mean RI before and after administration of salbutamol was used for assessing endothelial function. A change of ≦6% in RI post-salbutamol was considered as endothelial dysfunction.\nStudy (c) design. […]"}}, "note": "“And” between values parts separate entries of the source, which are not always exact repeats. Identical values can stand only once."}
{"smiles": "CC(C)c1c(C(=O)Nc2ccccc2)c(-c2ccccc2)c(-c2ccc(F)cc2)n1CC[C@@H](O)C[C@@H](O)CC(=O)O", "note": "[Atorvastatin]", "values": [{"measurement": "Glutathione", "setting": "Type 2 Diabetic Subjects [1]; Post treatment, 12 weeks", "result": "721.6 ± 116.9", "unit": "µmol/L"}, {"measurement": "MDA", "setting": "Type 2 Diabetic Subjects [1]; Post treatment, 12 weeks", "result": "2.13 ± 0.48", "unit": "nmol/mL"}, {"measurement": "NO", "setting": "Type 2 Diabetic Subjects [1]; Post treatment, 12 weeks", "result": "68.89 ± 11.54", "unit": "µmol/L"}, {"measurement": "Glutathione", "setting": "Type 2 Diabetic Subjects [1]; Pre treatment", "result": "530.8 ± 168.4", "unit": "µmol/L"}, {"measurement": "MDA", "setting": "Type 2 Diabetic Subjects [1]; Pre treatment", "result": "3.48 ± 0.73", "unit": "nmol/mL"}, {"measurement": "NO", "setting": "Type 2 Diabetic Subjects [1]; Pre treatment", "result": "42.24 ± 6.771", "unit": "µmol/L"}, {"measurement": "Mean % change in Glutathione", "setting": "Type 2 Diabetic Subjects [1]; after 12 weeks of treatment", "result": "51.77% and 51.77 ± 62.72%"}, {"measurement": "Mean % change in MDA", "setting": "Type 2 Diabetic Subjects [1]; after 12 weeks of treatment", "result": "−38.05% and −38.05 ± 10.43%"}, {"measurement": "Mean % change in NO", "setting": "Type 2 Diabetic Subjects [1]; after 12 weeks of treatment", "result": "64.71% and 64.71 ± 27.25%"}, {"measurement": "Absolute change in MDA", "setting": "Type 2 Diabetic Subjects [2]; 12 weeks", "result": "−1.17 ± 0.75", "unit": "nM/ml"}, {"measurement": "Absolute change in NO", "setting": "Type 2 Diabetic Subjects [2]; 12 weeks", "result": "28.45 ± 12.30", "unit": "μM/L"}, {"measurement": "Absolute change in hsCRP", "setting": "Type 2 Diabetic Subjects [2]; 12 weeks", "result": "−2.10 ± 1.26", "unit": "Mg/L"}, {"measurement": "Mean percentage change in MDA", "setting": "Type 2 Diabetic Subjects [2]; 12 weeks", "result": "−30.55 ± 19.81", "unit": "%"}, {"measurement": "Mean percentage change in NO", "setting": "Type 2 Diabetic Subjects [2]; 12 weeks", "result": "88.44 ± 50.97", "unit": "%"}, {"measurement": "Mean percentage change in hsCRP", "setting": "Type 2 Diabetic Subjects [2]; 12 weeks", "result": "−64.90 ± 26.99", "unit": "%"}, {"measurement": "MDA", "setting": "Type 2 Diabetic Subjects [2]; Post TT, 12 weeks", "result": "2.37 ± 0.59", "unit": "nM/ml"}, {"measurement": "NO", "setting": "Type 2 Diabetic Subjects [2]; Post TT, 12 weeks", "result": "63.69 ± 15.04", "unit": "μM/L"}, {"measurement": "hsCRP", "setting": "Type 2 Diabetic Subjects [2]; Post TT, 12 weeks", "result": "0.97 ± 0.78", "unit": "Mg/L"}, {"measurement": "MDA", "setting": "Type 2 Diabetic Subjects [2]; Pre TT", "result": "3.54 ± 0.85", "unit": "nM/ml"}, {"measurement": "NO", "setting": "Type 2 Diabetic Subjects [2]; Pre TT", "result": "35.24 ± 9.71", "unit": "μM/L"}, {"measurement": "hsCRP", "setting": "Type 2 Diabetic Subjects [2]; Pre TT", "result": "3.08 ± 1.38", "unit": "Mg/L"}, {"measurement": "Absolute change in RI", "setting": "Type 2 Diabetic Subjects [3]; 12 weeks", "result": "−8.35 ± 4.17", "unit": "%"}, {"measurement": "RI(%), Mean", "setting": "Type 2 Diabetic Subjects [3]; Post TT, 12 weeks", "result": "−11.03$ %"}, {"measurement": "RI(%), Mean", "setting": "Type 2 Diabetic Subjects [3]; Pre TT", "result": "−2.68", "unit": "%"}]}
